Experimental findings from US20150141460A1, “Anti-inflammatory Compositions” (Cambridge Enterprise Limited, priority 2007, published 2015) are described below.

Series [1] can be described thus: Identification of the primary metabolites in pooled rat urine by LC-MS-MS. Conditions: single oral dose 3 mg/kg in 1% CMC, pooled urine over 24 hrs, qualitative. Type of series: in vivo. The method, then: (§1) Urine was collected from rats exposed to a single oral dose (3 mg/kg in 1% CMC) of each compound over a 24 hour period in metabolic cages. The pooled urine sample was then subjected to full scan mass spectral analysis, using the same LC-MS conditions as described in example 1 above. Further MS-MS analysis of the product ions was then performed, and likely fragmentations/re-arrangements assigned from the publicly available Metabolite ID database.
For the major metabolites, the assigned structures were confirmed by synthesis of authentic samples, using methods well known in the art, which were subject to LC-MS-MS analysis under the same conditions as the urine samples.
Note that metabolite ID studies provide only qualitative estimates of the relative amounts of the different metabolites present, and separately validated assays with appropriate internal standards would be required to quantitate each metabolite species.

A short description of series [2]: Distribution of unchanged compound into tissues and urine 24 hrs after a single dose in rat. The class given is in vivo. The settings on record: for Urine (ng/ml) unchanged parent compound: 24 hrs after a single oral dose 3 mg/kg in 1% CMC. As to the method: as §1
To provide a quantitative estimate of the degree of metabolism suffered by each of the compounds tested, the amount of unchanged parent compound in urine was measured using the same validated LC-MS assay described in example 1, using (S)-3-(2′,2′-dimethylpropanoylamino)-caprolactam as an internal standard. In addition, the level of compounds in various target tissues was also determined.

Series [3] deals with MCP-1 induced migration of THP-1 cells. As to the kind of experiment: ChemoTx transwell migration assay, MCP-1 induced migration of THP-1 cells. Type of series: cell-based. Conditions: Homo sapiens. The method, then:
FIGS. 6A-6F show representative dose response curves for the inhibition of chemokine-induced leukocyte migration in vitro, for each of the five compounds (I′) to (V) in the ChemoTx™ transwell migration assay. In each experiment, THP-1 cells were induced to migrate using a maximally effective dose of the chemokine MCP-1 in the presence or absence of various doses (from 10 pM to 1 μM) of each compound. An appropriate vehicle control was used in each experiment. The percentage inhibition of MCP-1 induced migration (calculated as the number of cells migrated in the presence of MCP-1 minus the number of cells migrated with MCP-1 omitted from the lower chamber) at each concentration of each test compound is shown as the mean of triplicate determinations, with whiskers representing SEM. The ED50 was estimated by linear interpolation of the presented graphs. The Y-axis of each graph represents the percentage inhibition of MCP-1 induced migration; the X-axis represents the concentration of test compound present in units of nM (0.01-1000).
In principle, this assay consists of two chambers separated by a porous membrane. The chemoattractant is placed in the lower compartment and the cells are placed in the upper compartment. After incubation for a period at 37° C. the cells move towards the chemoattractant, and the number of cells in the lower compartment is proportional to the chemoattractant activity (relative to a series of controls).
The THP-1 cell line (European Cell Culture Collection) were used as the leukocyte cell population.
First, the cell suspension to be placed in the upper compartment is prepared. The THP-1 cells are pelleted by centrifugation (770×g; 4 mins) and washed with Geys Balanced Salt Solution with 1 mg/ml BSA (GBSS+BSA). This wash is then repeated, and the cells repelleted before being resuspended in a small volume of GBSS+BSA for counting, for example using a standard haemocytometer.
The volume of GBSS+BSA is then adjusted depending on the number of cells present so that the cells are at final density of 4.45×10^6 cells per ml of GBSS+BSA. This ensures that there are […] THP-1 cells in each 25 μl of the solution that will be placed in the upper chamber of the plate.
To test a single compound for its ability to inhibit chemokine induced migration, it is necessary to prepare two lots of cells. The suspension of THP-1 cells at 4.45×10^6 cells/ml is divided into two pots. To one pot the inhibitor under test is added at an appropriate final concentration, in an appropriate vehicle (for example at 1 μM in not more than 1% DMSO). To the second pot an equal volume of GBSS+BSA plus vehicle as appropriate (e.g. not more than 1% DMSO) is added to act as a control.
Next, the chemoattractant solution to be placed in the lower compartment is prepared. […]

[4] abbreviates: THP-1 cell line, maximal dose of chemoattractant, Table 6, read-out: ED50 MCP-1 induced migration.
Where [5] appears, read: THP-1 cells, Table 5, read-out: Functional ED50 versus MCP-1.

Read-outs that look alike come from different tables or passages of the source.

For `CC(C)(C)C(=O)N[C@H]1CCCNC1=O` [Compound (I′), (S)-3-(2′,2′-dimethylpropanoylamino)-tetrahydropyridin-2-one], in series [1], the “major metabolites / route of metabolism detected in urine” value is “no significant metabolites”. Further, in series [2], the “Urine (ng/ml) unchanged parent compound” value is 24567 ng/mL. In addition, the “unchanged parent compound recovered in urine, % of the injected dose” value in series [2] (single oral dose 3 mg/kg in 1% CMC, 24 hrs) was “more than 60%”. The EC50 in series [3] (setting [4]) and in series [3] (setting [5]) was 0.05 nM in each case.

In the case of `O=C1NCCCC[C@@H]1NC(=O)C12CC3CC(CC(O)(C3)C1)C2` [Compound (V), 3-(3′-hydroxyadamantyl-1-carbonylamino)-caprolactam], in series [1], the “major metabolites / route of metabolism detected in urine” value is given as “the glucuronidated compound was the major metabolite”. Also, the “Urine (ng/ml) unchanged parent compound” value in series [2] was 16300 ng/mL. Also, the EC50 in series [3] (setting [4]) and in series [3] (setting [5]) was 0.12 nM each time.
